# Reference: patent US10829473B2, “Modulators of the cystic fibrosis transmembrane conductance regulator protein and methods of use” (AbbVie Overseas S.Á.R.L., priority 2017, dated 2020)
# Like-named read-outs stand apart in the source and are kept apart here. Marks after values point to notes of the source that are not given here.
# Biological target: T1, F508delCFTR (Homo sapiens, UniProt P13569, DEL508-508)
# T1 construct: expressed in transfected cells; host or cells: CFBE41o- human lung derived epithelial cells (CFBE41o-F508delCFTR-HRP), doxycycline-inducible
# Assay: Cell Surface Expression-Horse Radish Peroxidase (CSE-HRP) Assay;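 for EC50 (with co-corrector): co-corrector chromenyl benzoic acid corrector at 2 or 3 µM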;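 for Maximum % activity (without co-corrector): % of on-plate positive control chromenyl benzoic acid corrector at 2 or 3 µM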
# Format: cell-based
# Settings: for Maximum % activity (with co-corrector) / Emax: maximum at any tested concentration; for Emax: read-out: Maximum % activity (without co-corrector)
# Outline: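 Corrector compounds were given as 8-point 3-fold series from 20 or 30 μM, with or without a 2 μM co-corrector, for 18-24 h at 33 °C. Surface HRP was read by luminol luminescence as % of positive control; variable-Hill-slope sigmoidal fitting gave EC50 from triplicate plates.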
# [1] = test compound alone, without co-corrector, read-out: EC50 (without co-corrector)
# [2] = with co-corrector, read-out: EC50 (with co-corrector)
# [3] = test compound with co-corrector
# [4] = test compound with co-corrector, read-out: EC50 (with co-corrector)
# [5] = test compound without co-corrector
# [6] = test compound without co-corrector, read-out: EC50 (without co-corrector)
# T1 sequence (P13569 with tags, fused parts or gaps DEL508-508): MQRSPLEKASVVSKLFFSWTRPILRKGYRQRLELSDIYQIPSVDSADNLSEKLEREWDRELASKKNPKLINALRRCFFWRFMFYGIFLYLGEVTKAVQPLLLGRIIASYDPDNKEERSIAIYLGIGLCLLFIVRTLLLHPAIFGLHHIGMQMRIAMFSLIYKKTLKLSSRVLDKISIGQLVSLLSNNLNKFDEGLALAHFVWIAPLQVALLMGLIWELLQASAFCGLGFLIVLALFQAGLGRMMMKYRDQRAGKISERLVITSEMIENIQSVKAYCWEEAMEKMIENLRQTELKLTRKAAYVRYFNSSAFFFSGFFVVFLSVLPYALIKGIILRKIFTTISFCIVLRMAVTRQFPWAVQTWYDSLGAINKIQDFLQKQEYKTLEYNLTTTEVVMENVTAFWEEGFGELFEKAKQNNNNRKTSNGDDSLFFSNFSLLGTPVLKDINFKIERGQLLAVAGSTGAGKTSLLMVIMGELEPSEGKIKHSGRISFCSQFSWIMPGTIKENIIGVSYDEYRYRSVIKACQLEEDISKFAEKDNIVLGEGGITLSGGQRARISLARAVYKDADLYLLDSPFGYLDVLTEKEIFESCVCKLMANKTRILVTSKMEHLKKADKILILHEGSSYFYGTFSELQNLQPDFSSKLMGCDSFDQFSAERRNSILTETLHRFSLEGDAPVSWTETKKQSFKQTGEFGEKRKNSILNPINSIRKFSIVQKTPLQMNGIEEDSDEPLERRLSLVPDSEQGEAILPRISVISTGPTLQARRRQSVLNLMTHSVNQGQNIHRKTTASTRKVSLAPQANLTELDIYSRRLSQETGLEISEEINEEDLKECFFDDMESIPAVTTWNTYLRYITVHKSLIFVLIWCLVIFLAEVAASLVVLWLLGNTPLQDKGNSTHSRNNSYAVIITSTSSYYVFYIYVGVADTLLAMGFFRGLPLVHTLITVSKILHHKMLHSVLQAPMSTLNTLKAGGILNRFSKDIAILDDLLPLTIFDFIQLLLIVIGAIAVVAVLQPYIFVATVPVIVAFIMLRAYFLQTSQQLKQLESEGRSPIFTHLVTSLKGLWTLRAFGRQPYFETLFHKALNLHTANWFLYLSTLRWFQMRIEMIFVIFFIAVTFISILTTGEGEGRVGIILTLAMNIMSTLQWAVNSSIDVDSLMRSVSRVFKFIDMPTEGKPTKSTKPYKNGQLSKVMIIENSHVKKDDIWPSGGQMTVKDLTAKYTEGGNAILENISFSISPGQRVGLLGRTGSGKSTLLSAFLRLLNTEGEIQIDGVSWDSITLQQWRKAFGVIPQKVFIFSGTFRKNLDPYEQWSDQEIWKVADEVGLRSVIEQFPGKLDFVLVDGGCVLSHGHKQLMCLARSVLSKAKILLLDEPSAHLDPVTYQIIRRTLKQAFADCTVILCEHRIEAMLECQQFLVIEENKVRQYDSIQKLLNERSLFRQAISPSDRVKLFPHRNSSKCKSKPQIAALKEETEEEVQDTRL
EC50 [1],Maximum % activity (with co-corrector) (with co-corrector),EC50 [2],Emax (without co-corrector),Maximum % activity (with co-corrector) [3],EC50 [4],Emax [5],EC50 [6],EC50 (with co-corrector) [3],EC50 (without co-corrector) [5],SMILES
> 10 µM,+ (<150),> 10 µM,< 50%,,,,,,,"O=C(NS(=O)(=O)c1cccc2c(O)cccc12)C1(c2cccc(Cl)c2)CC1 [Example III-57, 1-(3-chlorophenyl)-N-(5-hydroxynaphthalene-1-sulfonyl)cyclopropane-1-carboxamide]"
,,,,+++ (≥350),< 3 µM,> 150%,< 3 µM,,,"COc1cc(C2(C(=O)NS(=O)(=O)c3cccc4[nH]ccc34)CC2)c(OCC2CC2)cn1 [Example GI-95, 1-[5-(cyclopropylmethoxy)-2-methoxypyridin-4-yl]-N-(1H-indole-4-sulfonyl)cyclopropane-1-carboxamide]"
< 3 µM,+++ (≥350),< 3 µM,> 150%,,,,,,,"COc1ccc(C2CCC2)cc1C1(C(=O)NS(=O)(=O)c2cccc3[nH]ncc23)CC1 [Example I-56, 1-(5-cyclobutyl-2-methoxyphenyl)-N-(1H-indazole-4-sulfonyl)cyclopropane-1-carboxamide]"
,,,,+++ (≥350),< 3 µM,> 150%,3 to 10 µM,,,"CC(C)Oc1ncc(N2CCC2)cc1C1(C(=O)NS(=O)(=O)c2cccc3[nH]ccc23)CC1 [Example GI-85, 1-{5-(azetidin-1-yl)-2-[(propan-2-yl)oxy]pyridin-3-yl}-N-(1H-indole-4-sulfonyl)cyclopropane-1-carboxamide]"
3 to 10 µM,+++ (≥350),3 to 10 µM,> 150%,,,,,,,"COc1ncc(C)cc1C1(C(=O)NS(=O)(=O)c2cccc3ccccc23)CC1 [Example I-15, 1-(2-methoxy-5-methylpyridin-3-yl)-N-(naphthalene-1-sulfonyl)cyclopropane-1-carboxamide]"
3 to 10 µM,+++ (≥350),3 to 10 µM,> 150%,,,,,,,"[2H]C1(c2ccc(OC)c(C3(C(=O)NS(=O)(=O)c4cccc5ncccc45)CC3)c2)COC1 [Example III-129, 1-{2-methoxy-5-[(3-^2H)oxetan-3-yl]phenyl}-N-(quinoline-5-sulfonyl)cyclopropane-1-carboxamide]"
,,,,+++ (≥350),< 3 µM,> 150%,< 3 µM,,,"Cc1ccc2c(S(=O)(=O)NC(=O)C3(c4cc(C5CCC5)cnc4N4CCCC4)CC3)cccc2n1 [Example GI-29, 1-[5-cyclobutyl-2-(pyrrolidin-1-yl)pyridin-3-yl]-N-(2-methylquinoline-5-sulfonyl)cyclopropane-1-carboxamide]"
3 to 10 µM,+++ (≥350),3 to 10 µM,50 to 150%,,,,,,,"COc1ncc(C(F)(F)F)cc1C1(C(=O)NS(=O)(=O)c2cccc3ncn(C)c23)CC1 [Example III-96, 1-[2-methoxy-5-(trifluoromethyl)pyridin-3-yl]-N-(1-methyl-1H-benzimidazole-7-sulfonyl)cyclopropane-1-carboxamide]"
3 to 10 µM,+++ (≥350),< 3 µM,> 150%,,,,,,,CCC(C)c1ccc(OC)c(C2(C(=O)NS(=O)(=O)c3cccc4c3CCCN4)CCC2)c1 (centres unmarked) [II-22]
< 3 µM,+++ (≥350),< 3 µM,> 150%,,,,,,,"COc1ccc(C)cc1C1(C(=O)NS(=O)(=O)c2cccc3nc(C)ccc23)CC1 [Example I-64, 1-(2-methoxy-5-methylphenyl)-N-(2-methylquinoline-5-sulfonyl)cyclopropane-1-carboxamide]"
< 3 µM,+++ (≥350),< 3 µM,> 150%,,,,,,,"COc1ccc(C(C)C)cc1C1(C(=O)NS(=O)(=O)c2cccc3nc(C)ccc23)CC1 [Example I-71, 1-[2-methoxy-5-(propan-2-yl)phenyl]-N-(2-methylquinoline-5-sulfonyl)cyclopropane-1-carboxamide]"
< 3 µM,+++ (≥350),< 3 µM,> 150%,,,,,,,COc1cc(C2CCC2)cc(OC)c1C1(C(=O)NS(=O)(=O)c2cccc3c2ccn3C)CC1 [II-65]
< 3 µM,+++ (≥350),< 3 µM,> 150%,,,,,,,"COc1ccc(C2CCC2)cc1C1(C(=O)NS(=O)(=O)c2cccc3ccccc23)CC1 [Example I-2, 1-(5-cyclobutyl-2-methoxyphenyl)-N-(naphthalene-1-sulfonyl)cyclopropane-1-carboxamide]"
< 3 µM,+++ (≥350),< 3 µM,> 150%,,,,,,,"COc1ccc(OC2CCC2)cc1C1(C(=O)NS(=O)(=O)c2cccc3ncccc23)CC1 [Example I-32, 1-[5-(cyclobutyloxy)-2-methoxyphenyl]-N-(quinoline-5-sulfonyl)cyclopropane-1-carboxamide]"
,,,,++ (≥150 and <350),,< 50%,,++^a,++^a,O=C(NS(=O)(=O)c1cccc2ncccc12)C1(c2ncc(C(F)(F)F)cc2Cl)CC1 [GIII-1]
,,,,+++ (≥350),< 3 µM,> 150%,< 3 µM,,,"CCc1cnc(OCC2CC2)c(C2(C(=O)NS(=O)(=O)c3cccc4nc(C)ccc34)CC2)c1 [Example GI-107, 1-[2-(cyclopropylmethoxy)-5-ethylpyridin-3-yl]-N-(2-methylquinoline-5-sulfonyl)cyclopropane-1-carboxamide]"
< 3 µM,+++ (≥350),< 3 µM,> 150%,,,,,,,"CCOc1ccc(C(C)(C)OCC)cc1C1(C(=O)NS(=O)(=O)c2cccc3nc(C)ccc23)CC1 [Example I-103, 1-[2-ethoxy-5-(2-ethoxypropan-2-yl)phenyl]-N-(2-methylquinoline-5-sulfonyl)cyclopropane-1-carboxamide]"
> 10 µM,+ (<150),> 10 µM,< 50%,,,,,,,"O=C(NS(=O)(=O)c1ccc2ccccc2c1)C1(c2ccc(Cl)cc2Cl)CC1 [Example III-27, 1-(2,4-dichlorophenyl)-N-(naphthalene-2-sulfonyl)cyclopropane-1-carboxamide]"
< 3 µM,+++ (≥350),< 3 µM,> 150%,,,,,,,"CCc1ccc(O[C@@H]2CCOC2)c(C2(C(=O)NS(=O)(=O)c3cccc4ncccc34)CC2)c1 [Example I-118, 1-(5-ethyl-2-{[(3R)-oxolan-3-yl]oxy}phenyl)-N-(quinoline-5-sulfonyl)cyclopropane-1-carboxamide]"
3 to 10 µM,++ (≥150 and <350),< 3 µM,< 50%,,,,,,,"O=C(NS(=O)(=O)c1ccccc1OC(F)(F)F)C1(c2ccc(Cl)cc2Cl)CC1 [Example III-13, 1-(2,4-dichlorophenyl)-N-[2-(trifluoromethoxy)benzene-1-sulfonyl]cyclopropane-1-carboxamide]"
